According to ChEMBL document CHEMBL6178021, “Optimization of Tambjamines Active against Multiple Stages of Malaria Parasites” (J Med Chem, 2025):
≈ marks a conversion by molar mass, not a printed value.

What was measured:
[1] = test system: MDR1 (human); assay: Apparent permeability across apical to basolateral side in MDCK transfected with human MDR1 cells incubated for 1 hr by LC-MS analysis; conditions: dog, MDCK-MDR1
[2] = Metabolic stability in human liver microsomes assessed as half life measured up to 60 mins by LC/MS analysis; format: ADME, Microsome
[3] = test system: MDR1 (human); assay: Apparent permeability across basolateral to apical side in MDCK transfected with human MDR1 cells incubated for 1 hr by LC-MS analysis; conditions: dog, MDCK-MDR1
[4] = Metabolic stability in mouse liver microsomes assessed as half life measured up to 60 mins by LC/MS analysis; format: ADME, Microsome
[5] = test system: Plasmodium yoelii; assay: Antimalarial activity against erythrocytic Plasmodium yoelii MRA-428 infected in CF1 mouse assessed as reduction in parasitemia at 10 mg/kg, po once daily for 4 days measured on day 5; format: functional; design: scale not given: the % may be the effect or the level left; conditions: time 4 day
[6] = in vitro; conditions: human, liver microsomes
[7] = test system: Plasmodium yoelii; assay: Antimalarial activity against erythrocytic Plasmodium yoelii MRA-428 infected in CF1 mouse assessed as reduction in parasitemia at 25 mg/kg, po once daily for 4 days measured on day 5; format: functional; design: scale not given: the % may be the effect or the level left; conditions: time 4 day
[8] = test system: HepG2; assay: Cytotoxicity against human HepG2 cells assessed as cell viability measured after 48 hrs by MTT assay; format: toxicity, cell-based; conditions: hepg2
[9] = test system: Plasmodium yoelii; assay: Antimalarial activity against erythrocytic Plasmodium yoelii MRA-428 infected in CF1 mouse assessed as cured mouse at 50 mg/kg, po once daily for 4 days measured on day 28 day; format: functional, organism-based; conditions: time 4.0 day
[10] = Solubility of the compound in potassium phosphate buffer at pH 7.4 by UV-vis spectroscopy; conditions: buffer
[11] = test system: MDR1 (human); assay: Efflux ratio, ratio of apparent permeability across apical to basolateral side over basolateral to apical side in MDCK transfected with human MDR1 cells incubated for 1 hr by LC-MS analysis; conditions: dog
[12] = test system: Plasmodium yoelii; assay: Antimalarial activity against erythrocytic Plasmodium yoelii MRA-428 infected in CF1 mouse assessed as cured mouse at 25 mg/kg, po once daily for 4 days measured on day 28 day; format: functional, organism-based; conditions: time 4.0 day
[13] = in vitro; conditions: human
Description: Selectivity index, ratio of IC50 for cytotoxicity against human HepG2 cells to IC50 for antiplasmodial activity against asexual blood-stage Plasmodium falciparum D6

[14] = test system: Plasmodium falciparum; assay: Antiplasmodial activity against asexual blood-stage Plasmodium falciparum Tm90-C2B using 2% haematocrit and 0.2% parasitemia assessed as reduction in fluorescence measured after 72 hrs by Malaria SYBR Green I-based Fluorescence (MSF) assay; format: functional, organism-based
[15] = in vitro; conditions: mouse, liver microsomes
[16] = test system: Plasmodium yoelii; assay: Antimalarial activity against erythrocytic Plasmodium yoelii MRA-428 infected in CF1 mouse assessed as reduction in parasitemia at 50 mg/kg, po once daily for 4 days measured on day 5; format: functional; design: scale not given: the % may be the effect or the level left; conditions: time 4 day
[17] = test system: Plasmodium falciparum; assay: microbe, parasite or virus in culture; conditions: Dd2, 72 h
Description: Antiplasmodial activity against asexual blood-stage Plasmodium falciparum Dd2 using 2% haematocrit and 0.2% parasitemia assessed as reduction in fluorescence measured after 72 hrs by Malaria SYBR Green I-based Fluorescence (MSF) assay

[18] = test system: Plasmodium falciparum; assay: microbe, parasite or virus in culture; conditions: D6, 72 h
Description: Antiplasmodial activity against asexual blood-stage Plasmodium falciparum D6 using 2% haematocrit and 0.2% parasitemia assessed as reduction in fluorescence measured after 72 hrs by Malaria SYBR Green I-based Fluorescence (MSF) assay

SMILES | Papp A→B at 1 h [1] | half-life [2] | Papp B→A at 1 h [3] | half-life [4] | Activity [5] | microsomal CLint at 1 h [6] | Activity [7] | IC50 [8] | Activity [9] | solubility [10] | efflux ratio at 1 h [11] | Activity [12] | selectivity ratio [13] | IC50 [14] | microsomal CLint at 1 h [15] | Activity [16] | IC50 [17] | IC50 [18]
COC1=C(OC)/C(=C/NC23C[C@H]4C[C@@H](C2)C[C@@H](C3)C4)N=C1c1ccc[nH]1 | 0.27 ×10⁻⁶ cm/s | 17.6 min | 0.025 ×10⁻⁶ cm/s | 43.2 min | 63.1% | 78.7 µL/min/mg | 100% | 4660 nM | Not active; None Of The Mouse Cured Out Of Four Tested | 167 µM (≈ 59 µg/mL) | 0.093 | Not active; One Mouse Cured Out Of Four | 789 | 4.46 nM | 32.1 µL/min/mg | 100% | 5.96 nM | –
COC1=C(OC)/C(=C/NC2CCCCCC2)N=C1c1ccc[nH]1 | 1.02 ×10⁻⁶ cm/s | 16.1 min | 2.78 ×10⁻⁶ cm/s | 14.6 min | 8.81% | 85.9 µL/min/mg | 81.2% | 16500 nM | – | 199 µM (≈ 62.8 µg/mL) | 2.7 | – | 290 | 38.8 nM | 94.7 µL/min/mg | – | 35.6 nM | 56.9 nM
COC(=O)[C@H]1CC[C@H](N/C=C2\N=C(c3ccc[nH]3)C3=C2CCCC3)CC1 | 0.23 ×10⁻⁶ cm/s | 16.7 min | 1.1 ×10⁻⁶ cm/s | 10.3 min | – | 82.9 µL/min/mg | – | 19900 nM | – | 383 µM (≈ 135 µg/mL) | 4.8 | – | 334 | 170 nM | 134 µL/min/mg | 100% | 157 nM | –
CCC1=C(CC)/C(=C/NC23C[C@H]4C[C@@H](C2)C[C@@H](C3)C4)N=C1c1ccc(Cl)[nH]1 | 0.34 ×10⁻⁶ cm/s | > 60 min | 0.074 ×10⁻⁶ cm/s | > 60 min | 23.2% | – | 90.7% | 4440 nM | – | 40 µM (≈ 15.4 µg/mL) | 0.22 | – | 315 | 7.32 nM | – | – | 8.98 nM | 14.1 nM
CCC1=C(CC)/C(=C/NC23C[C@H]4C[C@@H](C2)C[C@@H](C3)C4)N=C1c1ccc(Cc2ccc(OC)cc2)[nH]1 | 0.04 ×10⁻⁶ cm/s | > 60 min | 0.008 ×10⁻⁶ cm/s | > 60 min | 0% | 11.7 µL/min/mg | – | 1610 nM | – | 26.2 µM (≈ 12.3 µg/mL) | 0.21 | – | 775 | 3.99 nM | 4.57 µL/min/mg | – | 0.868 nM | 2.08 nM
CCc1ccc(C2=N/C(=C\NC3CCCCC3)C3=C2OCCO3)[nH]1 | 0.25 ×10⁻⁶ cm/s | 51.3 min | 1.3 ×10⁻⁶ cm/s | 16.7 min | 0% | 27 µL/min/mg | 19.4% | 1960 nM | – | 131 µM (≈ 42.9 µg/mL) | 5.2 | – | 308 | 1.35 nM | 82.8 µL/min/mg | – | 11.9 nM | 6.36 nM
CCC1=C(C)/C(=C/NC23C[C@H]4C[C@@H](C2)C[C@@H](C3)C4)N=C1c1ccc(CC)[nH]1 | 0.026 ×10⁻⁶ cm/s | > 60 min | 0.027 ×10⁻⁶ cm/s | > 60 min | 100% | – | 100% | 2970 nM | Not active; None Of The Mouse Cured Out Of Four Tested | 3.95 µM (≈ 1.44 µg/mL) | 1 | Not active; None Of The Mouse Cured Out Of Four Tested | 3270 | 0.844 nM | – | 100% | 0.348 nM | 0.909 nM
CCC1=C(CC)/C(=C/NC23C[C@H]4C[C@@H](C2)C[C@@H](C3)C4)N=C1c1cc2cc(OC)ccc2[nH]1 | 0.002 ×10⁻⁶ cm/s | > 60 min | 0.001 ×10⁻⁶ cm/s | > 60 min | 87.2% | 6.19 µL/min/mg | 93.8% | 5250 nM | – | 24.4 µM (≈ 10.5 µg/mL) | 0.59 | – | 125 | 55.9 nM | 9.13 µL/min/mg | – | 45.7 nM | 41.9 nM
C[C@H]1CC[C@H](N/C=C2\N=C(c3ccc[nH]3)C3=C2CCCC3)CC1 | 0.27 ×10⁻⁶ cm/s | 25.6 min | 0.23 ×10⁻⁶ cm/s | 33 min | – | 54.1 µL/min/mg | 41.2% | 7770 nM | – | 185 µM (≈ 57.2 µg/mL) | 0.85 | – | 1320 | 13.1 nM | 41.9 µL/min/mg | 100% | 2.36 nM | 5.88 nM
CCC1=C(CC)/C(=C/NC23C[C@H]4C[C@@H](C2)C[C@@H](C3)C4)N=C1c1ccc(-c2ccc(OC)cc2)[nH]1 | 0.03 ×10⁻⁶ cm/s | 12.2 min | 0.016 ×10⁻⁶ cm/s | 12.1 min | 11.5% | 114 µL/min/mg | – | 999 nM | – | 12.4 µM (≈ 5.65 µg/mL) | 0.53 | – | 113 | 8.02 nM | 110 µL/min/mg | – | 5.37 nM | 8.88 nM
FC(F)(F)[C@H]1CC[C@H](N/C=C2\N=C(c3ccc[nH]3)C3=C2CCCC3)CC1 | 1.2 ×10⁻⁶ cm/s | 33.9 min | 0.52 ×10⁻⁶ cm/s | > 60 min | – | 40.8 µL/min/mg | 100% | 12400 nM | Not active; One Mouse Cured Out Of Four | 237 µM (≈ 86.1 µg/mL) | 0.43 | Not active; None Of The Mouse Cured Out Of Four Tested | 366 | 32.7 nM | 5.49 µL/min/mg | 100% | 49.6 nM | –
